Measured values taken from patent US10227324B2 (Shanghai Haiyan Pharmaceutical Technology Co., Ltd., priority 2014, dated 2019).
Where two headings read alike, the source gives them in different places.

Legend:
[1] = molecular target: T1, PI3K-α kinase (p110α/p85α) (Homo sapiens, UniProt P42336); test: Determination of PI3K kinase activity (ADP Transcreener, fluorescence polarization); type: biochemical; details: ATP 10 μM
T1 construct: purchased Invitrogen PV4788

[2] = molecular target: T2, PI3K-β kinase (p110β/p85α) (Homo sapiens, UniProt P42338); test: as above; type: biochemical; details: Table 1; ATP 10 μM; read-out: PI3K-β/nM (IC50 of inhibitory activity against PI3K kinase)
T2 construct: purchased Millipore 14-603

[3] = molecular target: T3, PI3K-δ kinase (p110δ/p85α) (Homo sapiens, UniProt O00329); test: as above; type: biochemical; details: Table 1; ATP 10 μM; read-out: PI3K-δ/nM (IC50 of inhibitory activity against PI3K kinase)
T3 construct: purchased Millipore 14-604M

PI3K-γ kinase (p110γ) = molecular target: T4, PI3K-γ kinase (p110γ) (Homo sapiens, UniProt P48736); test: as above; type: biochemical; details: Table 1; ATP 10 μM; read-out: PI3K-γ/nM (IC50 of inhibitory activity against PI3K kinase)
T4 construct: purchased Invitrogen PV4786
Method in brief: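 Each 25 μL reaction held PI3K enzyme (p110α/p85α 3 ng, p110β/p85α 60 ng, p110δ/p85α 90 ng, or p110γ 100 ng), 10 μM ATP, 30 μM PIP2:PS and 2% DMSO, incubated 1 h at 25 °C. Compounds were tested in duplicate across a 3-fold series, 0.00046–1 μM as prepared. ADP was detected by Transcreener fluorescence polarization, quantified against an ADP/ATP standard curve, and IC50 fitted.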

MCF-7 cells = test: Cell inhibitory activity detected by MTT assay, MCF-7; type: cell-based; details: Homo sapiens, MCF7, 72 h, read-out: MCF-7 cell (IC50/nM), cell growth inhibition
Method in brief: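 MCF-7 cells in DMEM + 10% FBS were treated after adherence with compounds at 8 concentrations (0.0046–10 μM) for 72 h at 37 °C, 5% CO2.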

T1 sequence (P42336 whole entry): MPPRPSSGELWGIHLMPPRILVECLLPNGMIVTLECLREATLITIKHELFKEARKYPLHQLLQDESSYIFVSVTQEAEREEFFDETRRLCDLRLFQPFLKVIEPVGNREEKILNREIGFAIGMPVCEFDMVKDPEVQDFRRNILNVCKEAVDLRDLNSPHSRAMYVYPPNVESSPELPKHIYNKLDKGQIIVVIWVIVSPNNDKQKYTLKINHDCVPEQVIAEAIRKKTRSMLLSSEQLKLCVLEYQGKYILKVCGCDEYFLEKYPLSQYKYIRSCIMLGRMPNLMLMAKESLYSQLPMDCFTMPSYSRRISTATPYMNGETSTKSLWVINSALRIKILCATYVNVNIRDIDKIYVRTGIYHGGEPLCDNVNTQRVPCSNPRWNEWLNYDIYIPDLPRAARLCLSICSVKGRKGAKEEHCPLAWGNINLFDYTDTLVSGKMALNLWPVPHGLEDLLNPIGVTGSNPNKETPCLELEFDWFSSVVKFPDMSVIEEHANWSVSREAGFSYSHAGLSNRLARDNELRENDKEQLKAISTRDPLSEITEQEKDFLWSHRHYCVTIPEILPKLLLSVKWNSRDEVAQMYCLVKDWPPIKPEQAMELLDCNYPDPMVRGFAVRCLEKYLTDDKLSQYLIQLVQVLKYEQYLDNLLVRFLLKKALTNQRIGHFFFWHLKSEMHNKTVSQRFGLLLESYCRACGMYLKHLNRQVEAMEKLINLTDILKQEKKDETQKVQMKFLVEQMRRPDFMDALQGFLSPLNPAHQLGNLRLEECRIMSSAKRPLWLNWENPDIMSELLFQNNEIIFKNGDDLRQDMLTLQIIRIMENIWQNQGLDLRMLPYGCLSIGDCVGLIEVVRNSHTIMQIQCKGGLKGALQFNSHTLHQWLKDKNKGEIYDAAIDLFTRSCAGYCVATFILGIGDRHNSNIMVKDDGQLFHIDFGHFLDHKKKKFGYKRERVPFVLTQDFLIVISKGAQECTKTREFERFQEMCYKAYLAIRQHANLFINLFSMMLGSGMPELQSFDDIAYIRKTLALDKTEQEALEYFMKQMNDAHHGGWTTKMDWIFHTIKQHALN
T1 sequence (P27986 whole entry partner): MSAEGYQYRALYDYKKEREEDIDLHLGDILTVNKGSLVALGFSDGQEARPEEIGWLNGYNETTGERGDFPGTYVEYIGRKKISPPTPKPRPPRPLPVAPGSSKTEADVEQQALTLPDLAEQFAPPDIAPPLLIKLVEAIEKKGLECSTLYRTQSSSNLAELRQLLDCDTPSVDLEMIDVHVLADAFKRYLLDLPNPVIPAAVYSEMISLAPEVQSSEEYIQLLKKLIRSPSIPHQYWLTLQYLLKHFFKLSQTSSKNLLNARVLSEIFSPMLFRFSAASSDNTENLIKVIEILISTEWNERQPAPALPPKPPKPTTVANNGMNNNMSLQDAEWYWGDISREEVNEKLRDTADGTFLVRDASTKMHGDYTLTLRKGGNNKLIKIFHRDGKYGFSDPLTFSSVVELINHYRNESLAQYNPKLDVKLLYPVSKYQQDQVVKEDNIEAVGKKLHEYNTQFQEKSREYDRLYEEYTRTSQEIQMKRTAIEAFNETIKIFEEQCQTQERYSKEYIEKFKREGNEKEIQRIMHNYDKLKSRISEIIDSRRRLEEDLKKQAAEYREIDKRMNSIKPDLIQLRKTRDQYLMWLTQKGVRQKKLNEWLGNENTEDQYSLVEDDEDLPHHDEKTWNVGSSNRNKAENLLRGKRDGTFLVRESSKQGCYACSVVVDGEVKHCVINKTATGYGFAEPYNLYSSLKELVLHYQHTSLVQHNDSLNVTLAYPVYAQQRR
T2 sequence (P42338 whole entry): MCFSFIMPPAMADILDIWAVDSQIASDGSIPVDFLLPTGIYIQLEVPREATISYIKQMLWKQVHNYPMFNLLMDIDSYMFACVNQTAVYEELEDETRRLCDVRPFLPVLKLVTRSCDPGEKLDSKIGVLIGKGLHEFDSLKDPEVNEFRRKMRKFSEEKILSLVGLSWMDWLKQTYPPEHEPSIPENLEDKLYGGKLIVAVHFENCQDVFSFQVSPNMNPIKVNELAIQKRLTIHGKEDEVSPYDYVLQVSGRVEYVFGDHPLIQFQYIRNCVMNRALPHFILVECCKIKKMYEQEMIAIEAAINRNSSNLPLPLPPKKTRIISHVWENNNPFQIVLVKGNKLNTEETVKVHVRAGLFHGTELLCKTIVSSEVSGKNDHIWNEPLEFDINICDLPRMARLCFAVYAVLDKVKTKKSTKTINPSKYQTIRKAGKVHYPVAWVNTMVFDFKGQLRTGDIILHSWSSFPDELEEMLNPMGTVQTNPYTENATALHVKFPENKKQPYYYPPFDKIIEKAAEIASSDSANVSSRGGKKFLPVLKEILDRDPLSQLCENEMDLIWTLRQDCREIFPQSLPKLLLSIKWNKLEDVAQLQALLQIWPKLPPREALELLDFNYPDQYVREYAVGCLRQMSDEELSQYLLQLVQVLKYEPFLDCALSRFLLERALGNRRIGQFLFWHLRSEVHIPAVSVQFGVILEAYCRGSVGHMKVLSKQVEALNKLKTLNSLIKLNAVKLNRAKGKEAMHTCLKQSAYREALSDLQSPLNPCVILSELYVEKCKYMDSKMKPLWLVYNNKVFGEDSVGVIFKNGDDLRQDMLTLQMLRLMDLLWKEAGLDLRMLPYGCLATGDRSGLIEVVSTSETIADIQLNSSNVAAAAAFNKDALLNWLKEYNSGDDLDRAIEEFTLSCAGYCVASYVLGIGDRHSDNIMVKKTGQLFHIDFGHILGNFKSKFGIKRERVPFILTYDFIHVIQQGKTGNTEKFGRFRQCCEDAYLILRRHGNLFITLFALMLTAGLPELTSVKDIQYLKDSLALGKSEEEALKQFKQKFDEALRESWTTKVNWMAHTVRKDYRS
T2 sequence (P27986 whole entry partner): as the sequence (P27986 whole entry partner) above
T3 sequence (O00329 whole entry): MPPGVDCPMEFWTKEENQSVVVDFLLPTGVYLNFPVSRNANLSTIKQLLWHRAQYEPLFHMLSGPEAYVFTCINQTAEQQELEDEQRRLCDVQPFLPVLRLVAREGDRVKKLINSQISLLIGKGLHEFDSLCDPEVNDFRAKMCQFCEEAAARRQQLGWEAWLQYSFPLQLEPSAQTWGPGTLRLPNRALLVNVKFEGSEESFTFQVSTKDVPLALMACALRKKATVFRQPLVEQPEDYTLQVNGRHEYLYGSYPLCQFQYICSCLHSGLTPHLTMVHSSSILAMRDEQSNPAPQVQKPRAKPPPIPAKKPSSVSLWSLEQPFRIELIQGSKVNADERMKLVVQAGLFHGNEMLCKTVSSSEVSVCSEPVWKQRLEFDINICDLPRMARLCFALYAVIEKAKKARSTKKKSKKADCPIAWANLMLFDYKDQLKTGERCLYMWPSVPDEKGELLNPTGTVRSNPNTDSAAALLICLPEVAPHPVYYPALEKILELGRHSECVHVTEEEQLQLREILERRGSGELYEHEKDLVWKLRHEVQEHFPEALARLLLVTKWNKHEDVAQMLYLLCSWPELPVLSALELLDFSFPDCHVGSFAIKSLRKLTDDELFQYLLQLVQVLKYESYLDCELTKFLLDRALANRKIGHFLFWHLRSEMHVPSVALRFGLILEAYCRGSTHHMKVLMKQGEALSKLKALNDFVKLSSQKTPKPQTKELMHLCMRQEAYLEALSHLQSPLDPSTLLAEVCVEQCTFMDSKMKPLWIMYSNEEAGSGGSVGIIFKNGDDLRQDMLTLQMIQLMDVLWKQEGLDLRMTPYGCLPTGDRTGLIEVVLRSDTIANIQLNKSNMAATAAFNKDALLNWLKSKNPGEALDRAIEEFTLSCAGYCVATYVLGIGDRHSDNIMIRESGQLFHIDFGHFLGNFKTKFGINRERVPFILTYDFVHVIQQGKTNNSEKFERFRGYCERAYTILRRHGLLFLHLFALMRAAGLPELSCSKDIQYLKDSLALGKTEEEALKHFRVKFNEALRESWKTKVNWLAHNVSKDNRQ
T3 sequence (P27986 whole entry partner): as the sequence (P27986 whole entry partner) above
T4 sequence (P48736 whole entry): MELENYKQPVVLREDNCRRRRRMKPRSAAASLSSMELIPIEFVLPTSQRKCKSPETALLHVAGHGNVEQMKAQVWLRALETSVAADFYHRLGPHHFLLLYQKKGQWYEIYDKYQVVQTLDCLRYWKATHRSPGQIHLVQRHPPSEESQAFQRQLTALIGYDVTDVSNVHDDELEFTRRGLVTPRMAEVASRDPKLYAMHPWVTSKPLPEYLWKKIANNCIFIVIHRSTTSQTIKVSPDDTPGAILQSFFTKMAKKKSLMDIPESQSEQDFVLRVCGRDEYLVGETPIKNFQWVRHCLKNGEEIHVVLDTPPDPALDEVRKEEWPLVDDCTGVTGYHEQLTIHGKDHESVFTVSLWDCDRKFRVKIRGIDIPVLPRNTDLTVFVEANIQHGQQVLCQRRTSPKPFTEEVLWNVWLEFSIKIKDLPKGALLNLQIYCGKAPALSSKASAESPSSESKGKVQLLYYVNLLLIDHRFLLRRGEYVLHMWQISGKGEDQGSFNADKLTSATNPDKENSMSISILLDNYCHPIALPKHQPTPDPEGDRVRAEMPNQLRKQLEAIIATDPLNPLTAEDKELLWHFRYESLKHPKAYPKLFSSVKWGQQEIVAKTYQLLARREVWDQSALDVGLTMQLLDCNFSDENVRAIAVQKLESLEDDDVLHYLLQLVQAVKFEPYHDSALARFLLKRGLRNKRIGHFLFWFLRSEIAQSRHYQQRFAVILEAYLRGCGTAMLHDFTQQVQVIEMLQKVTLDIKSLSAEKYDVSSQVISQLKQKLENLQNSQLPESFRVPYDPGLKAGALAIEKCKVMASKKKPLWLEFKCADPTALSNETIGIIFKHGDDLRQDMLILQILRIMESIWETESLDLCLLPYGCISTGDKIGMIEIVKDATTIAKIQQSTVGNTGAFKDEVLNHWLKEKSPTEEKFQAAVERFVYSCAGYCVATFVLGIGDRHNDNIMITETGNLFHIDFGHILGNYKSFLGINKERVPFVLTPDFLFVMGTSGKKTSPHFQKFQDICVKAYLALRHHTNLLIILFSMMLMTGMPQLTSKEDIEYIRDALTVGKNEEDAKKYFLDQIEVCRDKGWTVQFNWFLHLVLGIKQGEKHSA

`CC(C)S(=O)(=O)C1(c2cc(-c3cnc(N)cc3F)nc(N3CCOCC3)n2)CC1` [Compound S-86] gave an IC50 ([1]; Table 1, read-out: PI3K-α/nM (IC50 of inhibitory activity against PI3K kinase)) of 26 nM, an IC50 ([1]; Table 2, read-out: PI3K-α/nM (IC50 of inhibitory activity against PI3K-α kinase)) of 26 nM and an IC50 [2] of 763 nM. The IC50 [3] was 397 nM, the IC50 (PI3K-γ kinase (p110γ)) was 192 nM and the IC50 (MCF-7 cells) was 29 nM.
